Data as given in patent publication US12582720B2, “Compound for preventing or treating lipid metabolism-related diseases” (Fudan University, priority 2020, dated 2026).
Entries after “also recorded” stand apart in the source; their conditions may differ.

Columns and labels:
[1] = system: wild type MEF cells; assay: Integrity of nuclear membrane, cell membrane and mitochondria in MEF cells; format: cell-based, mouse; conditions: 5 μM, 24 h
Description: Cells were blocked in 4% BSA+0.1% Triton X-100 in 1×PBS for 30 min and incubated overnight at 4° C. with primary antibody goat polyclonal Lamin B1 (1:200, Santa Cruz Biotechnology, cat. no. sc-6216, RRID: AB_648156), washed with blocking buffer, and incubated with secondary antibody (1:500, Alexa Flour488 donkey anti-goat, Jackson immunoResearch Lab, cat.no. 705-547-003, RRID: AB_2340431) at room temperature for 1 hour. The samples were washed three times and stained with DAPI for 10 min at room temperature.
MitoTracker staining and CellMask staining were performed the same as LysoTracker staining, except using MitoTracker™ Green FM (500 nM, Thermo Fisher, cat. no. M7514) staining for 3 hours to detect total mitochondria; MitoTracker™ Red CMXRos. (500 nM, Thermo Fisher, cat. no. M7512) staining for 3 hours to detect healthy mitochondria; and CellMask™ (2000×, CellMask™ Plasma Membrane Stains, Thermo Fisher, cat. no. C10046) staining for 5 minutes at 37° C.
Wild type MEF cells were treated with conjugated compound (Compound 1A, Compound 2A, Compound 3A or Compound 4A at a concentration of 5 μM) according to a method similar to Example 2. […]

[2] = system: lipid droplets in wild type MEF cells; assay: Reduction of OA-induced lipid droplets in wild type MEF cells (BODIPY 493/503 staining); format: cell-based, mouse
[3] = system: lipid droplets in wild type MEF cells; assay: as above; format: cell-based, mouse; conditions: wild type MEF, 24 h; for lipid droplets: 1.5 μM or 5 μM; for amount of lipid droplets / size of lipid droplets: OA-induced
Description: (5) OA-BSA stock solution was prepared into OA-BSA working solution (50× final concentration, 200 μM), and 40 μl of OA-BSA working solution was added to each well to induce lipid droplets. For the non-OA induction group, 40 μl of 10% BSA solution was added to the control well, and the amount of BSA was the same as that of the experimental group.
Compounds were formulated into DMSO stock solutions. Stock compounds were diluted with DMSO into the indicated concentrations of working solutions prior to use in the treatment of cells. After induction of the lipid droplets with OA for the indicated time, the test compounds were added to the cells respectively. Control wells were replaced with the equal volume of DMSO. Unless otherwise stated, the compounds were diluted into 10× solutions using the culture medium and added to the culture medium for 24 hours of incubation. Cells were treated with compounds in a 37° C. incubator with 5% CO2.
(3) The original medium in the multi-well plates was removed, washed and the cells was fixed, 1 ml of the BODIPY solution prepared in (1) was added to each well, and stained for 15 minutes. The staining solution was aspirated and washed with 1×PBS.
(5) The coverslips laid in the multi-well plates were removed, and imaged with the Zeiss 880 confocal microscope after mounted, and analyzed the size and number of lipid droplets with ImageJ.
Wild type MEF cells were cultured in a DMEM culture medium containing 10% FBS. Cells were plated according to the method as described above (12 well plate was plated with aseptic treated slides). When cells grew to a confluence of 60-70%, lipid droplets were induced with OA for 30 h according to the method as described above.
At the time point of 6th hour after initiation of induction, the cells were treated (treated for 24 hours) with Compound 1A or Compound 2A (compound concentrations were 50 μM, 15.8 μM, 5 μM, 1.58 μM, 0.5 μM, 0.158 μM) according to the method as described above.

[4] = system: lipid droplets in autophagy-deficient MEF cells (Atg5−/−); assay: Lipid droplets in autophagy-deficient MEF cells (Atg5-/-); format: cell-based, mouse; conditions: 5 μM, 24 h
Description: Wild type MEF cells and autophagy-deficient MEF cells (Atg5−/−) were cultured in a DMEM culture medium containing 10% FBS. Cells were plated according to the method as described above (12 well plate was plated with aseptic treated slides). When cells grew to a confluence of 60-70%, lipid droplets were induced with OA for 30 h according to the method as described above. At the time point of 6th hour after initiation of induction, OA induced lipid droplets for 30 h, and the cells were treated (treated for 24 hours) with Compound 1A or Compound 2A according to the method as described above. […] The control wells were replaced with DMSO (treated with DMSO). […] After 26 hours of OA induction for lipid droplets, the culture medium of DMSO treated cells was replaced with EBSS, and starved for 4 hours to induce autophagy, and a slight reduction on lipid droplets was observed relative to cells without starvation treatment. Therefore, lipid droplets can be degraded via cell autophagy. The compound of present disclosure could promote the degradation of lipid droplets via cell autophagy.

[5] = system: lipid droplets in SH-SY5Y cells; assay: Reduction of OA-induced lipid droplets in SH-SY5Y cells; format: cell-based, human; conditions: for amount of lipid droplet: 1.58 μM-50 μM; for amount of lipid droplet / size of lipid droplet: 24 h; for size of lipid droplet: 5 μM-50 μM; for lipid droplet levels: concentrations as indicated in FIG. 18, 24 h
From the text: The reduction of lipid droplets in SH-SY5Y cells by Compound 1A and Compound 2A was detected by a method that was similar to Example 2, and the result was shown in FIG. 18.
The effects of unconjugated LC3 binding Compound A1, A5 and unconjugated lipid droplet probe ORBB […] respectively on lipid droplets in SH-SY5Y cells (FIG. 20A) and MEF cells (FIG. 20B) were detected by a method similar to Example 2.

[6] = system: lipid droplets in SH-SY5Y cells; assay: Lipid droplets in SH-SY5Y cells in the presence of autophagy inhibitor NH4Cl; format: cell-based, human; conditions: with NH4Cl 5 mM, 24 h
Description: By a method similar to Example 4, but after 6 hours from OA induction of lipid droplets, while the test compound was added into cells, autophagy inhibitor ammonium chloride (NH4Cl, final concentration of 5 mM) was added simultaneously. After continuous treatment for 24 hours, the lipid droplets were stained. […] Therefore, the compound of present disclosure reduced lipid droplets by targeting autophagy of cells.

[7] = system: lipid droplets in 3T3-L1 fat precursor cell differentiated fat cells; assay: Lipid droplets in 3T3-L1 fat precursor cell differentiated fat cells; format: cell-based, mouse; conditions: 3T3-L1 differentiated fat cells, 24 h; for effect of the compound on lipid droplets under the treatment of NH4Cl: 5 μM + NH4Cl 5 mM; for amount of lipid droplets / size of lipid droplets: 5 μM
[8] = system: autophagosome-lipid droplet colocalization in MEF cells; assay: Colocalization of autophagosome and lipid droplets in mCherry-LC3B transfected MEF cells; format: cell-based, mouse; conditions: 5 μM, 3 h, compared to DMSO control
Description: (1) In MEF cells, mCherry-LC3B was expressed by cDNA plasmid transfection.
(2) OA was added to the culture medium 30 hours after transfection to induce lipid droplets.
(3) Compounds were added to treat cells 6 hours after induction.
(4) 3 hours after compounds addition, cells were fixed and BODIPY stained.
(5) The coverslips laid in the multi-well plates were removed, and imaged with the Zeiss 880 confocal microscope after mounted to observe the aggregation of LC3 puncta around the lipid droplets.
In MEF cells, mCherry-LC3B was expressed by cDNA plasmid transfection. At 30th hour of overexpression, OA was added into cells for lipid droplet induction. 6 hours later, the compound was added for 3 hours' treatment, and then cells were subjected to immunostaining. […] Lipid droplets (green) were stained with BODIPY stain, and nucleus were indicated with DAPI stain. […] In FIG. 24, the colocalized autophagosome-lipid droplet was marked with circles.

[9] = system: lipid droplets in LC3B knockout HEK293T cells; assay: Lipid droplets in LC3B knockout HEK293T cells; format: cell-based, human; conditions: 5 μM
Description: The effect of conjugated compounds (Compound 1A, Compound 2A, Compound 3A or Compound 4A at a concentration of 5 μM) on lipid droplets in LC3B knockout HEK293T cells was tested by a method similar to Example 2.

[10] = system: lipid droplets in human normal liver cell line QSG7701; assay: Endogenous lipid droplets in human normal liver cell line QSG7701; format: cell-based; conditions: QSG7701, no induction, 5 μM, 24 h
Description: 10% FBS+90% RPMI 1640 culture medium was used for cultivation, cell incubator culture condition of 37° C. and 5% CO2 was used. Cells were plated as 50 thousands/well (12 well plate was plated with aseptic treated slides). When cells grew to a confluence of 80-90%, the compound (Compound 1A or Compound 2A, at a concentration of 5 μM) was added for treatment, and LC3 binding Compound A1, A5, lipid droplet probe Sudan IV as well as DMSO acted as a control. […]. In the compounds of present disclosure, LC3 binding moiety was covalently linked with lipid droplet binding moiety, and thus could achieve the effect of reducing liver cell endogenous lipid droplet.

[11] = biological target: LC3B (Homo sapiens, UniProt Q9GZQ8); assay: MST detection of affinity activity with LC3B; format: binding; parameters: His8 (with TEV site) (N); made in house; host or cells: Escherichia coli BL21(DE3)pLysS; conditions: MST; read-out: Kd (μM), equilibrium dissociation constant between the conjugated compound and LC3B
Description: The recombinant GST-LC3B proteins were prepared and purified, dialyzed into 1×PBS, and then labelled with the red fluorophore with the protein labeling kit RED-NHS (Nanotemper, cat. no. L001).
The MST experiments were performed using the Monolith NT.115 instrument (NanoTemper Technologies). The reaction buffer contains 20 mM HEPES, pH 7.4, 150 mM NaCl, and the protein concentration was 500 nM. The MST data were collected under 40% infrared laser power and 20% light-emitting diode power. The data were analyzed by Nanotemper software.

integrity of nuclear membrane, cell membrane, mitochondrion membrane [1]	Kd [11] [µM]	Compound	lipid droplets ([2]; DMSO treated cells, 5 mM NH4Cl, 24 h, relative to cells not treated with NH4Cl)	amount or size of lipid droplets ([2]; wild type MEF, autophagy blocker NH4Cl)	lipid droplets [3]	amount of lipid droplets ([3]; 0.5 μM-50 μM)	size of lipid droplets ([3]; 5 μM-50 μM)	lipid droplets [4]	amount of lipid droplet [5]	size of lipid droplet [5]	lipid droplet levels [5]	lipid droplets [6]	effect of the compound on lipid droplets under the treatment of NH4Cl [7]	amount of lipid droplets [7]	size of lipid droplets [7]	ratio of colocalization of red and green aggregation point (autophagosome-lipid droplet) [8]	reduction of lipid droplets induced by conjugated compounds after knockout of LC3B gene [9]	endogenous lipid droplets (amount) [10]	amount of lipid droplets ([3]; 1.58 μM-50 μM)	size of lipid droplets ([3]; 1.58 μM-50 μM)
Did not Affect		Cc1ccccc1/N=N/c1ccc(/N=N/c2c(OCCCCCCCCCCOc3cc(O)c4c(-c5ccccc5)cc(=O)oc4c3)ccc3ccccc23)c(C)c1 [Compound 2]																		
		Cl.N [NH4Cl, ammonium chloride]	slight increase	slightly increased																
	3.56	3-(3,5-dibromo-4-hydroxylbenzylidene)-5-iodo-1-(10-((1-((E)-(4-((E)-phenyldiazenyl)phenyl)diazenyl)naphthalen-2-yl)oxy)decyl)indol-2-one [Compound 1A]			significantly reduced	significantly reduced	significantly reduced	does not change; also recorded: ineffective	significantly reduce	significantly reduce	significantly reduces	does not change; also recorded: did not reduce	blocked	could reduce	could change	significantly increased	largely blocked	significantly reduce; also recorded: could reduce		
	5.37	Cc1ccccc1/N=N/c1ccc(/N=N/c2c(OCCCCCCCCCCOc3cc(O)cc4oc(=O)cc(-c5ccccc5)c34)ccc3ccccc23)c(C)c1 [Compound 2A, 7-hydroxy-5-((10-((1-((E)-(2-methyl-4-((E)-o-methylphenyldiazenyl)phenyl)diazenyl)naphthalen-2-yl)oxy)decyl)oxy)-4-phenyl-2H-chromen-2-one]			significantly reduced			does not change; also recorded: ineffective	significantly reduce	significantly reduce	significantly reduces	does not change; also recorded: did not reduce	blocked	could reduce	could change	significantly increased	largely blocked	significantly reduce; also recorded: could reduce	significantly reduced	significantly reduced
